# In US10253002B2, “Compounds and methods of treating infections” (Neoculi Pty Ltd., priority 2013, dated 2019):
# Where “and” joins values, the source holds several entries; their conditions need not be identical. Equal entries are not always repeated.
# Key:
# Pseudomonas aeruginosa = assay: Broth microdilution MIC, Example 7 (NCL812 and analogues); assay type: cell-based; details: Pseudomonas #008, 24 hours
# S. aureus ATCC29213 = assay: Broth microdilution MIC, Example 7 (NCL analogues), Table 42; assay type: cell-based, Staphylococcus aureus; details: S. aureus ATCC29213, 24 hours
# Escherichia coli = assay: Broth microdilution MIC, Example 7 (NCL812 and analogues); assay type: cell-based; details: E. coli ATCC25922, 24 hours
# E. faecalis #32 = assay: Broth microdilution MIC, Example 7 (NCL analogues), Table 42; assay type: cell-based, Enterococcus faecalis; details: E. faecalis #32, 24 hours
Structure (SMILES),MIC (μg/ml) at 24 hours Pseudomonas #008 (Pseudomonas aeruginosa) [µg/mL],MIC (μg/ml) at 24 hours S. aureus ATCC29213 (S. aureus ATCC29213),MIC (μg/ml) at 24 hours E. coli ATCC25922 (Escherichia coli) [µg/mL],MIC (μg/ml) at 24 hours E. faecalis #32 (E. faecalis #32) [µg/mL]
CC(Nc1cc(NC(C)c2ccccc2)nc(N)n1)c1ccccc1 (stereo not drawn) [NCL 184],>64,>64 µg/mL,>64,64
C/C(=N\Nc1cc(N/N=C(\C)c2ccc(Cl)cc2)ncn1)c1ccc(Cl)cc1.Cl [NCL 185],>64,>64 µg/mL,>64,>64
CC(Nc1cnc(NC(C)c2ccc(Cl)cc2)cn1)c1ccc(Cl)cc1 (stereo not drawn) [NCL 186],>64,>64 µg/mL,>64,>64
Cl.Clc1ccc(/C=N/Nc2cc(N/N=C/c3ccc(Cl)cc3)ncn2)cc1 [NCL 187],>64,>64 µg/mL,>64,>64
Cl.[H]/N=C(\N)NN=C(CCCC)c1ccc(Cl)cc1 [NCL 188],>64,32 µg/mL,64,32
Cl.OC/C(=N\Nc1cc(N/N=C(\CO)c2ccc(Cl)cc2)ncn1)c1ccc(Cl)cc1 [NCL 189],>64,>64 µg/mL,>64,>64
Cl.[H]/N=C(/N)NN=C(CNN)c1ccc(Cl)cc1 [NCL 190],>64,32 µg/mL and 64 µg/mL,>64,64
C/C(=N\NC(=N)N)c1ccc(Cl)cc1.Cl [NCL 191],>64,>64 µg/mL,>64,>64
Cl.N=C(N)NN=C(C(=O)O)c1ccccc1 [NCL 192],>64,>64 µg/mL,>64,>64
